# Measurements from patent publication US20090170893A1, “NOVEL HYDRATE FORM” (priority 2006, published 2009).
# Experiment: storage stability of the solid form (polymorphic conversion)
# Format: physicochemical
smiles,measurement,setting,value
"COc1c(N2C[C@@H]3CCCN[C@@H]3C2)c(F)cc2c(=O)c(C(=O)O)cn(C3CC3)c12.Cl [Example 1, 1-cyclopropyl-7-([S,S]-2,8-diazabicyclo-[4.3.0]non-8-yl)-6-fluoro-1,4-dihydro-8-methoxy-4-oxo-3-quinolinecarboxylic acid]",stability / polymorphic conversion on prolonged storage,prolonged storage over 3 weeks at ambient conditions,stable and exhibit no polymorphic conversion
same,stability / polymorphic conversion on prolonged storage,prolonged storage over 3 weeks at high humidity accelerated conditions,stable and exhibit no polymorphic conversion
